Assay results: patent US9713618B2, “Method for modifying food intake and regulating food preference with a DPP-4 inhibitor” (Boehringer Ingelheim International GmbH, priority 2012, dated 2017)
Where no end group is shown, it is not given here.

Experiments:
[1] = Acute nocturnal food intake in normal-weight rats; assay type: in vivo, rat; details: linagliptin 0.5 mg/kg sc BID, GLP-1 0.4 mg/kg sc BID
From the text: (§1) This anti-obesity effect is caused by appetite suppression and change in diet preference, presumably associated with increased dynorphin activity in dopaminergic forebrain regions involved in reward anticipation and habit learning.

[2] = Diet-induced obese (DIO) rats: body weight, food intake, diet preference; assay type: in vivo, rat; details: 14 days of monotherapy
From the text: as §1

[3] = Oral sucrose tolerance test (glucose control) on Day 4 in diabetic ZDF rats; assay type: in vivo, Male ZDF-Leprfa/Crl (diabetic fa/fa) rats; details: po daily 4 days, oral sucrose tolerance test Day 4
Description: (§2) Male ZDF-Leprfa/Crl (diabetic fa/fa) rats fed standard chow are allocated (n=10/group) based on body weight and fasting plasma glucose (FPG). […] An oral sucrose tolerance test (4 g/kg po) is performed on Day 4 and body weight is recorded daily.

active GLP-1 = assay: Plasma active GLP-1 5 min after sucrose load in diabetic ZDF rats; assay type: in vivo, Male ZDF-Leprfa/Crl (diabetic fa/fa) rats; details: 5 min after the sucrose load
Description: as §2

[4] = Overall body weight in diabetic ZDF rats dosed daily for 4 days; assay type: in vivo, Male ZDF-Leprfa/Crl (diabetic fa/fa) rats; details: po daily 4 days
Description: as §2

[5] = Safety and tolerability in people with type 2 diabetes
[6] = Pharmacokinetics of BI 1356 after multiple oral doses once daily for 12 days in patients with type 2 diabetes; details: for fe0-24 / feτ, ss: gMean; for feτ, ss: steady state (Day 12)
[7] = S1: linagliptin 1 mg/kg, high-dose voglibose 10 mg/kg
[8] = S2: linagliptin 1 mg/kg, low-dose voglibose 1 mg/kg
[9] = S1: linagliptin 1 mg/kg, voglibose 10 mg/kg
[10] = S2: linagliptin 1 mg/kg, voglibose 1 mg/kg

Compound | nocturnal food intake [1] | body weight [2] | glucose control compared with vehicle [3, 7] [%] | glucose control compared with vehicle [3, 8] [%] | plasma active GLP-1 increase compared with vehicle (active GLP-1; S1 (voglibose 10 mg/kg)) [%] | plasma active GLP-1 increase compared with vehicle (active GLP-1; S2 (voglibose 1 mg/kg)) [%] | change in overall weight compared with vehicle [4, 9] | change in overall weight compared with vehicle [4, 10] [%] | safety and tolerability [5] | mean accumulation ratio RA,AUC ([6]; doses above 1 mg) | fe0-24 ([6]; 2.5 mg oral once daily) [%] | fe0-24 ([6]; 5 mg oral once daily) [%] | fe0-24 ([6]; 10 mg oral once daily) [%] | feτ, ss ([6]; 1 mg oral once daily) [%] | feτ, ss ([6]; 2.5 mg oral once daily) [%] | feτ, ss ([6]; 5 mg oral once daily) [%] | feτ, ss ([6]; 10 mg oral once daily) [%] | form and route of excretion ([6]; human, in vivo) | excreted via the kidney ([6]; therapeutic oral dose levels) | main route of excretion ([6]; therapeutic oral dose levels)
CC#CCn1c(N2CCC[C@@H](N)C2)nc2c1c(=O)n(Cc1nc(C)c3ccccc3n1)c(=O)n2C [BI 1356] | no effect | no effect | −10 | −17 | 160 | 144 | +0.7% | −0.2 | placebo-like safety and tolerability | ≤ 1.4 | 0.139 | 0.453 | 0.919 | 3.34 | 3.06 | 6.27 | 3.22 | primarily excreted unchanged via the bile | < 7 % of the administered oral dose | mainly excreted via the liver
OCC(CO)N[C@H]1C[C@](O)(CO)[C@@H](O)[C@H](O)[C@H]1O [voglibose, reference compound] | – | – | −33 | −18 | – | – | −3.0% | −1.7 | – | – | – | – | – | – | – | – | – | – | – | –
GLP-1: native GLP-1(7-36), short acting GLP-1 receptor agonist (HAEGTFTSDVSSYLEGQAAKEFIAWLVKGR; ends and bridges not checked; UniProt P01275 98-127, looked up, fragment) [reference compound] | modest and short-lived suppression | no effect | – | – | – | – | – | – | – | – | – | – | – | – | – | – | – | – | – | –
